Here are results for eight molecules from PMC2929646 (Nutrition research (New York, N.Y.), 2010).

Read-outs that look alike come from different tables or passages of the source.

Series [1] deals with Caco-2 monolayers. The note with it: cited from earlier work.
The test system of series [2] is Caco-2 monolayers. Particulars: cited from earlier work. The source holds these as a separate data set.
The nature of series [3]: Stability in cell-free experimental media. The note with it: cell-free media (pH 5 PBS), 37°C, media 5 (EGCG), media 2 (dimers), mean ± SEM, n=4. Format: physicochemical.
Series [4] deals with Caco-2 cells. The note with it: cited from earlier work.
The subject of series [5] is Caco-2 human intestinal cells (TC7 clone). In words: Accumulation of catechin monomers and auto-oxidation dimers by Caco-2 monolayers.
A further series concerns lipase. The note with it: cited from earlier work.
A further series concerns the target rat squalene epoxidase. Particulars: relative to EGCG; cited from earlier work.
Series [6] relates to human histolytic lymphoma U937 cells. The note with it: cited from earlier work.
The next series relates to U937 cells. Particulars: cited from earlier work.
For series [7], the system named is fibrosarcoma HT1080 cells. The note with it: cited from earlier work.
Series [8] has as its system Caco-2 cells. The note with it: media containing 50 µM ECG; cited from earlier work.
For series [9] the following is noted: cited from earlier work.
For series [10], the system named is Caco-2 human intestinal cells. In words: Parallel accumulation and retention experiment in Caco-2 monolayers. The class given is in vitro ADME. Particulars: after 3 h accumulation, 1 h in catechin/dimer-free PBS; mean ± SEM, n=4.
The conditions of series [11]: cited from earlier work. The source holds these as a separate data set.

Turning to `Oc1cc(O)c2c(c1)O[C@H](c1ccc(O)c(O)c1)[C@@H](O)C2` [(+)-C, (+)-catechin], in the series with Caco-2 monolayers [1], the membrane adsorption is listed as 0.15–0.2 % transmembrane resistance, Ω cm^2. In the series with Caco-2 monolayers [2], the “apparent apical → basolateral permeability” value is 8 nm/s.
Turning to `Oc1cc(O)c2c(c1)O[C@H](c1ccc(O)c(O)c1)[C@@H](O)[C@@H]2c1c(O)cc(O)c2c1O[C@H](c1ccc(O)c(O)c1)[C@@H](O)C2` [procyanidin dimer B3, (+)-C-(4α→8)-(+)-C], in the series with Caco-2 monolayers [2], the “apparent apical → basolateral permeability” value is 20 nm/s.
`O=C(O[C@@H]1Cc2c(O)cc(O)cc2O[C@@H]1c1cc(O)c(O)c(O)c1)c1cc(O)c(O)c(O)c1` [EGCG, (−)-epigallocatechin gallate]: in series [3], the “Stability over 3 h (percent of initial concentration)” value came out at 91.8 ± 6.4%. The 3 h accumulation with Caco-2 cells [4] (previously reported by the authors) is recorded as 0.2–2.5 nmol/mg protein. Also, the “net accumulation at 3 h (amount per mg protein)” value in [5] (37°C, pH 5 PBS, media from EGCG + EGC (media 3, 6)) is 1.89 ± 0.15 nmol/mg. Further, the “Three h accumulation (range over monomer media)” value in series [5] (3 h, range over the media that contain the monomer) is given as 1.24–1.35%.
Turning to `O=C(O[C@@H]1Cc2c(O)cc(O)cc2O[C@@H]1c1cc(O)c(O)c(O)c1-c1c([C@H]2Oc3cc(O)cc(O)c3C[C@H]2OC(=O)c2cc(O)c(O)c(O)c2)cc(O)c(O)c1O)c1cc(O)c(O)c(O)c1` [THSN A], the “inhibition of lipase compared with EGCG” value in the series on lipase is reported as “more effective inhibitor of lipase than EGCG”. Besides, the “IC50 value, fold lower than EGCG” value on rat squalene epoxidase is 5 ×. In series [6], the induction of apoptosis entry is “induced apoptosis”. In addition, the “inhibition of growth compared with EGCG” value with U937 cells is “more effective at inhibiting the growth of U937 cells than EGCG”.
For `O=C(O[C@@H]1Cc2c(O)cc(O)cc2O[C@@H]1c1cc(O)c(O)c(O)c1-c1c([C@H]2Oc3cc(O)cc(O)c3C[C@H]2OC(=O)c2cc(O)c(O)c(O)c2)cc(O)c(O)c1O)c1cc(O)c(O)c(O)c1` [THSN D], the “inhibition of invasive activity compared with EC, EGC and EGCG” value in [7] was “better inhibitor of the invasive activity of fibrosarcoma HT1080 cells than EC and EGC, but was less effective than EGCG”. In addition, the “induction of apoptosis compared with EGCG” value in [6] is “more effective than EGCG”.
For `O=C(O[C@@H]1Cc2c(O)cc(O)cc2O[C@@H]1c1ccc(O)c(O)c1)c1cc(O)c(O)c(O)c1` [ECG, (−)-epicatechin gallate], the 1 h accumulation result with Caco-2 cells [8] is recorded as “roughly 3 nmol/mg protein”.
Consider theasinensins (THSNs) A/D [THSNs A/D], for which, in [3], the “Stability over 3 h (percent of initial concentration)” value was 100 ± 0.36%. Further, the “Fe^2+ chelation activity compared with EGCG” value in [9] is recorded as “equal to or greater than EGCG”. The “1 h Retention, Absolute” value in series [10] is recorded as 7.08 ± 2.2 pmol/well. The “O2^•− scavenging activity compared with EGCG” value in series [11] is “equal to or greater than EGCG”.
Regarding `Oc1cc(O)c2c(c1)O[C@H](c1cc(O)c(O)c(O)c1)[C@H](O)C2` [EGC, (−)-epigallocatechin], the 3 h accumulation with Caco-2 cells [4] is recorded as 0.1–0.5 nmol/mg protein.
